Data reported in patent US12441755B2, “Galactoside inhibitor of galectins” (GALECTO BIOTECH AB, priority 2019, dated 2025).

Columns and labels:
Galectin-1 = Galectin-1 (Homo sapiens, UniProt P09382); conditions: T. Delaine 2016; read-out: affinity to Galectin-1; cited from earlier work
Gal-1 = Gal-1 (Homo sapiens, UniProt P09382); experiment: Fluorescence anisotropy assay, compound as inhibitor of galectin / fluorescein tagged saccharide probe interaction; type: binding
Experimental: (§1) The affinity of Example 1-29 for galectins were determined by a fluorescence anisotropy assay where the compound was used as an inhibitor of the interaction between galectin and a fluorescein tagged saccharide probe as described Sörme, P., Kahl-Knutsson, B., Huflejt, M., Nilsson, U. J., and Leffler H. (2004) Fluorescence polarization as an analytical tool to evaluate galectin-ligand interactions. Anal. Biochem. 334: 36-47, (Sörme et al., 2004) and Monovalent interactions of Galectin-1 By Salomonsson, Emma; Larumbe, Amaia; Tejler, Johan; Tullberg, Erik; Rydberg, Hanna; Sundin, Anders; Khabut, Areej; Frejd, Torbjorn; Lobsanov, Yuri D.; Rini, James M.; et al, From Biochemistry (2010), 49(44), 9518-9532, (Salomonsson et al., 2010).

Gal-3 = Gal-3 (Homo sapiens, UniProt P17931); experiment: as above; type: binding
Gal-3, sequence (P17931 whole entry): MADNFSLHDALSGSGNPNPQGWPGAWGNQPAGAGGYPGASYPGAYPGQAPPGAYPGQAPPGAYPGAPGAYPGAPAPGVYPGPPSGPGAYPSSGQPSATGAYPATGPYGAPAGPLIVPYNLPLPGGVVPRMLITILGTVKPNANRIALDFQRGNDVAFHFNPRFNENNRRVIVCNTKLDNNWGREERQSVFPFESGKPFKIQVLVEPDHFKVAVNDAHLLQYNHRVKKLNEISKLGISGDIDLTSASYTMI
Experimental: as §1

galectins = conditions: cited from earlier work

Gal-1, sequence (P09382 whole entry): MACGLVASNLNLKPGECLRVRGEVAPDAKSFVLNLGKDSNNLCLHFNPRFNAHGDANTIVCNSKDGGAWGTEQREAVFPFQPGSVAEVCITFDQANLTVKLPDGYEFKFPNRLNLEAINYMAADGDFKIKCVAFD
Galectin-1, sequence (P09382 whole entry, species assumed): as the sequence (P09382 whole entry) above

Kd (Gal-1) [nM] | Kd (Gal-3) [nM] | SMILES | Kd (Galectin-1) [nM] | affinity relative to lactose, times lower (galectins; compared with lactose) | Kd (galectins; Leffler 2001, Leffler et al. 2004, read-out: Kd, all galectins) [µM]
 |  | OCC1O[C@@H](SC2O[C@H](CO)C(O)C(n3cc(-c4ccsc4)nn3)[C@H]2O)C(O)C(n2cc(-c3ccsc3)nn2)[C@H]1O (stereo partly shown) | < 10 |  | 
750 | 150 | Cc1nc2ccc(-n3cnnc3[C@@H]3O[C@H](CO)[C@H](O)[C@H](n4cc(-c5nc(Cl)cs5)nn4)[C@H]3O)cc2s1 [Example 1, 6-{3-{3-[4-(4-Chlorothiazol-2-yl)-1H-1,2,3-triazol-1-yl]-3-deoxy-β-D-galactopyranosyl}-4H-1,2,4-triazol-4-yl}-2-methylbenzothiazole] |  |  | 
1600 | 1900 | Cc1nc2ccc(-n3cnnc3[C@@H]3O[C@H](CO)[C@H](O)[C@H](n4cc(-c5csc(N)n5)nn4)[C@H]3O)cc2s1 [Example 6, 6-{3-{3-[4-(2-Aminothiazol-4-yl)-1H-1,2,3-triazol-1-yl]-3-deoxy-β-D-galactopyranosyl}-4H-1,2,4-triazol-4-yl}-2-methylbenzothiazole] |  |  | 
320 | 1900 | Cc1nc2ccc(-n3cnnc3[C@@H]3O[C@H](CO)[C@H](O)[C@H](n4cc(-c5csc(O)n5)nn4)[C@H]3O)cc2s1 [Example 8, 6-{3-{3-Deoxy-3-[4-(2-hydroxythiazol-4-yl)-1H-1,2,3-triazol-1-yl]-β-D-galactopyranosyl}-4H-1,2,4-triazol-4-yl}-2-methylbenzothiazole] |  |  | 
290 | 41 | Cc1nnc([C@@H]2O[C@H](CO)[C@H](O)[C@H](n3cc(-c4nc(Cl)cs4)nn3)[C@H]2O)n1-c1cc(Cl)ccc1C(F)(F)F [Example 9, 1-{3-{3-[4-(4-Chlorothiazol-2-yl)-1H-1,2,3-triazol-1-yl]-3-deoxy-β-D-galactopyranosyl}-5-methyl-4H-1,2,4-triazol-4-yl}-5-chloro-2-(trifluoromethyl)benzene] |  |  | 
5200 | 2300 | Cc1nc([C@@H]2O[C@H](CO)[C@H](O)[C@H](n3cc(-c4nccs4)nn3)[C@H]2O)n(-c2ccc3nc(C)sc3c2)n1 [Example 10, 6-{5-{3-Deoxy-3-[4-(2-thiazolyl)-1H-1,2,3-triazol-1-yl]β-D-galactopyranosyl}-3-methyl-1H-1,2,4-triazol-1-yl}-2-methylbenzothiazole] |  |  | 
2100 | 700 | Cc1csc(-c2cn([C@H]3[C@@H](O)[C@@H](CO)O[C@@H](c4nnc(C)n4-c4cc(Cl)ccc4C(F)(F)F)[C@@H]3O)nn2)n1 [Example 11, 5-Chloro-1-{3-{3-deoxy-3-[4-(4-methylthiazol-2-yl)-1H-1,2,3-triazol-1-yl]-β-D-galactopyranosyl}-5-methyl-4H-1,2,4-triazol-4-yl}-2-(trifluoromethyl)benzene] |  |  | 
190 | 520 | Cc1nnc([C@@H]2O[C@H](CO)[C@H](O)[C@H](n3cc(-c4csc(O)n4)nn3)[C@H]2O)n1-c1cc(Cl)ccc1C(F)(F)F [Example 12, 5-Chloro-1-{3-{3-deoxy-3-[4-(2-hydroxythiazol-4-yl)-1H-1,2,3-triazol-1-yl]β-D-galactopyranosyl}-5-methyl-4H-1,2,4-triazol-4-yl}-2-(trifluoromethyl)benzene] |  |  | 
9000 | 1800 | Cc1nc([C@@H]2O[C@H](CO)[C@H](O)[C@H](n3cc(-c4csc(C)n4)nn3)[C@H]2O)n(-c2ccc3nc(C)sc3c2)n1 [Example 13, 6-{5-{3-Deoxy-3-[4-(2-methylthiazol-4-yl)-1H-1,2,3-triazol-1-yl]β-D-galactopyranosyl}-3-methyl-1H-1,2,4-triazol-1-yl}-2-methylbenzothiazole] |  |  | 
19500 | 2300 | Cc1nc([C@@H]2O[C@H](CO)[C@H](O)[C@H](n3cc(-c4cncs4)nn3)[C@H]2O)n(-c2ccc3nc(C)sc3c2)n1 [Example 14, 6-{5-{3-Deoxy-3-[4-(5-thiazolyl)-1H-1,2,3-triazol-1-yl]β-D-galactopyranosyl}-3-methyl-1H-1,2,4-triazol-1-yl}-2-methylbenzothiazole] |  |  | 
1500 | 1300 | Cc1nc([C@@H]2OC(CO)[C@H](O)C(n3cc(-c4csc(N)n4)nn3)C2O)n(-c2cc(Cl)ccc2C(F)(F)F)n1 (stereo partly shown) [Example 15] |  |  | 
900 | 39 | Cc1nc([C@@H]2OC(CO)[C@H](O)C(n3cc(-c4nc(Cl)cs4)nn3)C2O)n(-c2cc(Cl)ccc2C(F)(F)F)n1 (stereo partly shown) [Example 16] |  |  | 
520 | 26 | CO[C@@H]1[C@@H](n2cc(-c3nc(Cl)cs3)nn2)[C@@H](O)[C@@H](CO)O[C@H]1c1nnc(C)n1-c1cc(Cl)ccc1C(F)(F)F [Example 17, 1-{3-{3-[4-(4-Chlorothiazol-2-yl)-1H-1,2,3-triazol-1-yl]-3-deoxy-2-O-methyl-β-D-galactopyranosyl}-5-methyl-4H-1,2,4-triazol-4-yl}-5-chloro-2-(trifluoromethyl)benzene] |  |  | 
660 | 130 | Cc1nc([C@@H]2O[C@H](CO)[C@H](O)[C@H](n3cc(-c4nc(Cl)cs4)nn3)[C@H]2O)n(-c2cc(Cl)cnc2C2CC2)n1 [Example 18, 3-{5-{3-[4-(4-Chlorothiazol-2-yl)-1H-1,2,3-triazol-1-yl]-3-deoxy-β-D-galactopyranosyl}-3-methyl-1H-1,2,4-triazol-1-yl}-5-chloro-2-cyclopropylpyridine] |  |  | 
730 | 820 | Cc1nnc([C@@H]2O[C@H](CO)[C@H](O)[C@H](n3cc(-c4csc(N)n4)nn3)[C@H]2O)n1-c1cc(Cl)ccc1C(F)(F)F [Example 19, 1-{3-{3-[4-(2-Aminothiazol-4-yl)-1H-1,2,3-triazol-1-yl]-3-deoxy-β-D-galactopyranosyl}-5-methyl-4H-1,2,4-triazol-4-yl}-5-chloro-2-(trifluoromethyl)benzene] |  |  | 
690 | 150 | Cc1nnc([C@@H]2O[C@H](CO)[C@H](O)[C@H](n3cc(-c4nccs4)nn3)[C@H]2O)n1-c1cc(Cl)ccc1C(F)(F)F [Example 20, 5-Chloro-1-{3-{3-deoxy-3-[4-(2-thiazolyl)-1H-1,2,3-triazol-1-yl]β-D-galactopyranosyl}-5-methyl-4H-1,2,4-triazol-4-yl}-2-(trifluoromethyl)benzene] |  |  | 
3000 | 1200 | Cc1nc2ccc(-n3cnnc3[C@@H]3O[C@H](CO)[C@H](O)[C@H](n4cc(-c5nccs5)nn4)[C@H]3O)cc2s1 [Example 21, 6-{3-{3-Deoxy-3-[4-(2-thiazolyl)-1H-1,2,3-triazol-1-yl]-β-D-galactopyranosyl}-4H-1,2,4-triazol-4-yl}-2-methylbenzothiazole] |  |  | 
2400 | 1800 | Cc1csc(-c2cn([C@H]3[C@@H](O)[C@@H](CO)O[C@@H](c4nncn4-c4ccc5nc(C)sc5c4)[C@@H]3O)nn2)n1 [Example 22, 6-{3-{3-Deoxy-3-[4-(4-methylthiazol-2-yl)-1H-1,2,3-triazol-1-yl]-β-D-galactopyranosyl}-4H-1,2,4-triazol-4-yl}-2-methylbenzothiazole] |  |  | 
2100 | 140 | Cc1nc([C@@H]2O[C@H](CO)[C@H](O)[C@H](n3cc(-c4nc(Cl)cs4)nn3)[C@H]2O)n(-c2ccc3nc(C)sc3c2)n1 [Example 23, 6-{5-{3-[4-(4-Chlorothiazol-2-yl)-1H-1,2,3-triazol-1-yl]-3-deoxy-β-D-galactopyranosyl}-3-methyl-1H-1,2,4-triazol-1-yl}-2-methylbenzothiazole] |  |  | 
3200 | 2600 | Cc1nc([C@@H]2O[C@H](CO)[C@H](O)[C@H](n3cc(-c4csc(N)n4)nn3)[C@H]2O)n(-c2ccc3nc(C)sc3c2)n1 [Example 24, 6-{5-{3-[4-(2-Aminothiazol-4-yl)-1H-1,2,3-triazol-1-yl]-3-deoxy-β-D-galactopyranosyl}-3-methyl-1H-1,2,4-triazol-1-yl}-2-methylbenzothiazole] |  |  | 
340 | 70 | CO[C@@H]1[C@@H](n2cc(-c3nc(Cl)cs3)nn2)[C@@H](O)[C@@H](CO)O[C@H]1c1nnc(C)n1-c1ccc2nc(C)sc2c1 [Example 25, 6-{3-{3-[4-(4-Chlorothiazol-2-yl)-1H-1,2,3-triazol-1-yl]-3-deoxy-2-O-methyl-β-D-galactopyranosyl}-5-methyl-4H-1,2,4-triazol-4-yl}-2-methylbenzothiazole] |  |  | 
590 | 65 | Cc1nc2ccc(-n3c(C)nnc3[C@@H]3O[C@H](CO)[C@H](O)[C@H](n4cc(-c5nc(Cl)cs5)nn4)[C@H]3O)cc2s1 [Example 26, 6-{3-{3-[4-(4-Chlorothiazol-2-yl)-1H-1,2,3-triazol-1-yl]-3-deoxy-β-D-galactopyranosyl}-5-methyl-4H-1,2,4-triazol-4-yl}-2-methylbenzothiazole] |  |  | 
2600 | 36 | Cc1nnc([C@@H]2OC(CO)[C@H](O)C(n3cc(-c4nc(Cl)cs4)nn3)C2O)n1-c1ccc2ncn(C)c2c1 (stereo partly drawn) [Example 27, 5-{3-{3-[4-(4-Chlorothiazol-2-yl)-1H-1,2,3-triazol-1-yl]-3-deoxy-β-D-galactopyranosyl}-5-methyl-4H-1,2,4-triazol-4-yl}-N-3-methylbenzimidazole] |  |  | 
33 | 600 | Cc1nc2ccc(-n3nccc3[C@@H]3OC(CO)[C@H](O)C(n4cc(-c5nc(Cl)cs5)nn4)C3O)cc2s1 (stereo partly shown) [Example 29] |  |  | 
 |  | O=C[C@H](O)[C@@H](O)[C@@H](O)[C@H](O)CO [Galactose, D-galactose] |  | 50-100 times lower | 
 |  | OC[C@H]1O[C@@H](O[C@H]2[C@H](O)[C@@H](O)C(O)O[C@@H]2CO)[C@H](O)[C@@H](O)[C@H]1O (stereo partly shown) [lactose] |  |  | 100 to 1000
